Results published in a melting point compilation (Tetko et al.; mined from patent text by program, amines drawn as free bases though some values may be those of a salt).

| SMILES | melting point |
| --- | --- |
| CC(C(=O)O)c1ccc(I)cc1 (stereo not given) | 101 to 102 °C |
| CC(C)(C)c1ccc(S(=O)(=O)Nc2nc(-c3ncccn3)nc(Cl)c2-c2cccs2)cc1 | 130 to 132 °C |
| CCN1c2ncccc2C(=O)N(C)c2ccc(-c3cnn(C(C)=O)c3)nc21 | 186 to 188 °C |
| CN1CC(C(=O)N(C)Cc2ccc(C(F)(F)F)cc2)=C(O)C1=O | 126 to 128 °C |
| CCCCCCN(CCCCCC)CC1CCN(C(=O)Oc2ccc(Oc3ccccc3)cc2)CC1 | 46 to 47 °C |
| CC(=O)NC[C@H]1CN(c2ccc3c(c2)CCSCC3=O)C(=O)O1 | 232 to 233 °C |
| CCc1c(Oc2cc(C)cc(C)c2)n(CC2CC=CC2)c(=O)[nH]c1=O | 179 to 180 °C |
| CC(C)(C)Nc1nc(Cl)c(C#N)cc1F | 84 to 85 °C |
| Cc1ccccc1OCC(O)CN1CCC(N2CCCNC2=O)CC1 (stereo not given) | 145 to 147 °C |
| CCCCCCCCCCCCCCCC(=O)N[C@@H](CSC[C@H](O)CO)C(=O)O | 110 °C |
| Cc1cc(Nc2cncc(Nc3ccc(Cl)c(OCCN(C)C)c3)n2)n[nH]1 | 145 to 147 °C |
| CC1(C)Oc2ccc(C#N)cc2C(n2ccccc2=O)C1=O (stereo not given) | 178 °C |
| COc1ccc(NC(=O)NC2CCN(Cc3ccccc3)CC2)c(CCc2cc(C(C)(C)C)c(O)c(C(C)(C)C)c2)c1 | 174 to 175 °C |
| COC(=O)C(C)(C)CCCOc1cc(C)c(NS(=O)(=O)c2ccc(OC)cc2)cc1C | 90 to 92 °C |
| CC(C)c1nc(COC(N)=O)n(Cc2ccccn2)c1Sc1cc(Cl)cc(Cl)c1 | 127 to 130 °C |
| CNC(=N[N+](=O)[O-])N(Cc1cnc(Cl)s1)C(=O)C(C)C | 101 to 104 °C |
| CCOC(=O)c1c(-c2ccc(OC)c(OC)c2)c2cc(OC)c(OC)cc2[nH]c1=O | 273 to 276 °C |
| NC(=O)C(F)(F)C1(c2ccc(Cl)cc2Cl)CO1 (stereo not given) | 100 to 101 °C |
| COc1ccc(-c2c3cccc(C(F)(F)F)c3nn2CC2CCCCC2)c(OC)c1 | 156 to 157 °C |
| CCCCCCCCSc1nc(Nc2cc(C)c(O)c(C(C)(C)C)c2)nc(NC2CC(C)(C)NC(C)(C)C2)n1 | 133 °C |
| CN(Cc1cccc(-c2ccc(CC3SC(=O)NC3=O)cc2)c1)C(=O)c1ccc(-c2ccc(O)cc2)cc1 (stereo not given) | 211 to 213 °C |
| CC(C)CC(C#N)NC(=O)C(CC(C)C)NC(=O)c1ccc(Cn2ccnc2)cc1 (stereo not given) | 100 to 103 °C |
| Fc1cc2c(Nc3ccc(F)c(C(F)(F)F)c3)ncnc2cn1 | 247 to 249 °C |
| CSC(=N[N+](=O)[O-])NCc1ccc(Cl)nc1 | 140 to 142 °C |
| COC(=O)COc1ccc(NC(=O)CCc2ccc(C#N)cc2)cc1 | 141 °C |

| SMILES | melting point |
| --- | --- |
| CCC1(CC)CC(=O)c2ccc(O)cc2O1 | 97 to 99 °C |
| CC(C)C[C@H](O)C(=O)N[C@@H](C)C(=O)N[C@@H]1C(=O)NCCS[C@@H]1c1ccccc1 | 93 to 99 °C |
| CSc1c(C(=O)O)ccc(F)c1F | 149 to 150 °C |
| CCCCCCCCCCCCCCCCCCOc1ccc2ccccc2c1O | 58 to 59 °C |
| CC(=O)SCCCCCCCCCCCOCCOCCOCCOc1ccc(OCc2ccccc2)cc1 | 55 to 57 °C |
| N#Cc1cccc(-n2c(=O)oc3ccc(-c4ccc(F)cc4F)cc3c2=O)c1 | 209 to 210 °C |
| CN1C(=O)Cc2cc(C(=O)[C@H]3C[C@H]3C(=O)O)ccc21 (relative stereo) | 237 to 240 °C |
| CC1(C)Oc2ccc(C#N)cc2[C@@H](N2CCCNC2=NC#N)[C@@H]1O (relative stereo) | 152 to 153 °C |
| O=C(/C=C/c1ccc(Cl)cc1)N1CCN(C(=O)c2cc(C(F)(F)F)cc(C(F)(F)F)c2)[C@H](Cc2c[nH]c3ccccc23)C1 | 125 to 138 °C |
| O=c1c2cccc3c2n(c(=O)n1CC(O)CO)-c1cc(C(F)(F)F)ccc1S3 (stereo not given) | 159 to 162 °C |
| CNC(=S)C1(c2cccc(C)n2)SCCCS1 | 168 °C |
| CC(=O)NCC1(C)CC(O)c2ccccc2O1 (stereo not given) | 168 to 170 °C |
| CN(C)C(=O)Cn1c(-c2ccc(Cl)cc2)nc2cccnc21 | 212 to 213 °C |
| COc1cc(N2C(=O)c3ccccc3C2=O)ccc1-c1ccc(Cl)s1 | 194 to 195 °C |
| CN1C(=O)CC[C@]2(C)c3ccc(C=Cc4cncc5ccccc45)cc3CC[C@@H]12 | 183 to 185 °C |
| O=c1[nH]c2cc(Cl)ccc2c(O)c1-c1cccc(F)c1 | > 350 °C |
| CC(C)(C)OC(=O)c1nc(-c2ccccc2)[nH]c1-c1ccncc1 | 205 to 206 °C |
| N#Cc1ncn2c(C(F)(F)F)cc(-c3ccccn3)nc12 | 205 °C |
| CC(/C=C/c1c(C)oc(C)c1C)=C\C=C\C(C)=C\C(=O)O | 213 to 214 °C |
| COC(=O)CCCOc1ccccc1I | 66.5 to 67 °C |
| CC(C)(C)CC(=O)Oc1ccc(-c2nn(C3CCCC3)c3c(F)cccc23)cc1 | 74 to 75 °C |
| O=C(Nc1ccc2[nH]cc(C3CCNCC3)c2c1)c1ccc(F)cc1 | 229 to 230 °C |
| COc1ccc2c(c1OC)C1(COc3cc4c(cc31)OCCO4)C(=O)N2Cc1ccc(C(F)(F)F)o1 (stereo not given) | 62 to 65 °C |
| COC(=O)CCc1ccc(C(=O)CCl)cc1 | 90 °C |
| COc1cc(C)c2c(c1OC)CCC1C(=O)NC(=O)C21 (stereo not given) | 179 to 181 °C |
